Measured values reported in ChEMBL document CHEMBL3046159, “Synthesis of some 3,4-disubstituted-6,7-dihydro-imidazo[2,1-b][1,3]thiazole and 3,4-disubstituted-7,8-dihydro-6H-imidazo[2,1-b][1,3]thiazine derivatives and evaluation of their cytotoxicities against F2408 and 5RP7 cells” (Med Chem Res, 2008).
≈ marks a conversion by molar mass, not a printed value. Calls of active or inactive are those of the source. The rule behind the calls is not given here.

Experiments:
[1] = Cytotoxicity against Rattus norvegicus (rat) F2408 cells after 24 hr by MTT assay; type: cell-based; details: F2408, 24 h
[2] = Cytotoxicity against Rattus norvegicus (rat) 5RP7 cells after 24 hr by MTT assay; type: functional, cell-based; details: 5RP7, 24 h
[3] = Cytotoxicity against Rattus norvegicus (rat) F2408 cells at low concentration after 24 hr by MTT assay; type: cell-based; details: f2408, 24 h
5RP7 [4] = assay: Cytotoxicity against Rattus norvegicus (rat) 5RP7 cells at low concentration after 24 by MTT assay; type: functional, cell-based
[5] = Cytotoxicity against Rattus norvegicus (rat) F2408 cells assessed as cell viability at 0.0256 to 0.064 ug/ml after 24 hr by MTT assay; type: cell-based; details: read-out: Activity
[6] = Cytotoxicity against Rattus norvegicus (rat) F2408 cells assessed as cell viability at 0.0128 ug/ml after 24 hr by MTT assay; type: cell-based; details: read-out: Activity
[7] = Cytotoxicity against Rattus norvegicus (rat) 5RP7 cells assessed as cell viability at 0.0128 ug/ml after 24 hr by MTT assay; type: functional; details: 5RP7, 24 h, read-out: Activity
[8] = Cytotoxicity against Rattus norvegicus (rat) F2408 cells at 0.0256 ug/ml by MTT assay; type: cell-based
[9] = Cytotoxicity against Rattus norvegicus (rat) F2408 cells at 0.0128 ug/ml by MTT assay; type: cell-based
[10] = Cytotoxicity against Rattus norvegicus (rat) 5RP7 cells at 0.064 ug/ml by MTT assay; type: functional
[11] = Cytotoxicity against Rattus norvegicus (rat) 5RP7 cells at 0.0128 ug/ml by MTT assay; type: functional
[12] = Cytotoxicity against Rattus norvegicus (rat) F2408 cells at 0.064 ug/ml by MTT assay; type: cell-based
[13] = Cytotoxicity against Rattus norvegicus (rat) 5RP7 cells at 0.0256 ug/ml by MTT assay; type: functional
[14] = Cytotoxicity against Rattus norvegicus (rat) F2408 cells after 48 hr by MTT assay; type: cell-based; details: f2408, 48 h
5RP7 [15] = assay: Cytotoxicity against Rattus norvegicus (rat) 5RP7 cells at high concentration after 48 hr by MTT assay; type: functional, cell-based

**Q.** Which IC50 [1] does the source give for Cc1ccc(-c2nc3n(c2-c2ccc(C)cc2)CCS3)cc1 here?
**A.** 15 µg/mL (≈ 49 µM)

**Q.** And the IC50 [2]?
**A.** 18 µg/mL (≈ 58.7 µM)

**Q.** What about the Activity [3] of the same compound?
**A.** Non-toxic

**Q.** And the Activity (5RP7 [4])?
**A.** Active

**Q.** For COc1ccc(-c2nc3n(c2-c2ccc(OC)cc2)CCS3)cc1, which IC50 [1] is on record?
**A.** 29 µg/mL (≈ 85.7 µM)

**Q.** And the IC50 [2]?
**A.** 22 µg/mL (≈ 65 µM)

**Q.** What about the Activity [3] of the same compound?
**A.** Non-toxic

**Q.** And the Activity (5RP7 [4])?
**A.** Active

**Q.** Which viability at 24 h [5] does the source give for Cc1ccc(-c2nc3n(c2-c2ccc(C)cc2)CCCS3)cc1 here?
**A.** 100%

**Q.** And the viability at 24 h, 0.0128 ug/ml [6]?
**A.** 100%

**Q.** And the IC50 [1]?
**A.** 12 µg/mL (≈ 37.4 µM)

**Q.** And the IC50 [2]?
**A.** 4.6 µg/mL (≈ 14.4 µM)

**Q.** What about the viability at 0.0128 µg/mL [7] of the same compound?
**A.** 87%

**Q.** What does the source list for c1ccc(-c2nc3n(c2-c2ccccc2)CCCS3)cc1?
**A.** Activity [8]: 21%; IC50 [1]: 10 µg/mL (≈ 34.2 µM); Activity [9]: 20%; Activity [10]: 21%; IC50 [2]: 2.9 µg/mL (≈ 9.92 µM); Activity [11]: 30%; Activity [12]: 18%; Activity [13]: 28%

**Q.** With c1ccc(-c2nc3n(c2-c2ccccc2)CCS3)cc1 as the compound, how does the Activity [14] read?
**A.** Toxic

**Q.** And the IC50 [1]?
**A.** 9.5 µg/mL (≈ 34.1 µM)

**Q.** What about the IC50 [2] of the same compound?
**A.** 15 µg/mL (≈ 53.9 µM)

**Q.** And the Activity (5RP7 [15])?
**A.** Active
